Experimental data: US11453640B2, “Small molecules for disrupting the super elongation complex and inhibiting transcription elongation for cancer therapy” (NORTHWESTERN UNIVERSITY, priority 2018, dated 2022)

Tested on: SEC components AFF1 and AFF4
Assay: Western blotting of SEC and P-TEFb component protein levels in treated cells
Type: cell-based, human
Conditions: HEK293T and HCT-116 cells, 20 μM, 6 hr
Source text: FIG. 1. Peptidomimetic identification of disruptors of the AFF4-CCNT1 interaction within the Super Elongation Complex. (A) Schematic for the identification of small molecule inhibitors of the AFF4-CCNT1 interaction using in silico high-throughput screening. Compounds from the ZINC database were docked with the AFF4-CCNT1 structure (4IMY) using a three-tier glide-docking algorithm, which led to 40 candidates. Residues forming the deep binding pocket of CCNT1 are labeled orange and residues of the AFF4 peptide are labeled red. (B) Validation screening identified KL-1 as a potential SEC disruptor using AlphaLISA screening. […] The Ki constants of both compounds were measured with the AlphaLISA assays. […] 5 μl, 10 and 20 μl cell lysates were loaded and the protein levels of AFF1, AFF4, CCNT1, CDK9 and Tubulin (load control) were determined by western blotting.
FIG. 8, related to FIG. 1. […] 293T cells were treated with 20 μM of KL-1 or KL-2 for 6 hr, and the protein levels of BRD2, BRD4, Pol II (RPB1), SPT5, MED26, MYC, HSP90 (load control) and Tubulin (load control) were measured by western blotting. […] HCT-116 cells were treated with 20 μM of KL-1 or KL-2 for 6 hr, and the protein levels of AFF1, AFF4, CCNT1, CDK9 and Tubulin (load control) were determined by western blotting. […] The log2CPM (counts per million) of the SEC subunits were calculated with HTseq. […]

COc1cccc(C(=O)CC(=O)C(=O)Nc2cc(Cl)ccc2C)c1 [KL-1, N-(5-chloro-2-methylphenyl)-4-oxo-4-(3-methoxyphenyl)-2-oxobutanamide]
protein levels of CCNT1, CDK9, Pol II, BRD2 and BRD4: no major effect | protein levels of SEC components AFF1 and AFF4: led to depletion of SEC components AFF1 and AFF4
